Measurements reported in paper PMC8508903, “Novel Dipyridinium Lipophile-Based Ionic Liquids Tethering Hydrazone Linkage: Design, Synthesis and Antitumorigenic Study” (International Journal of Molecular Sciences, 2021).
pIC50: −log10 of the molar value.

Legend:
A549 lung cancer cells = test: MTT cell viability assay, A549; assay type: cell-based, human; conditions: mean of three independent experiments (N = 9)
Method: (§1) To evaluate the effect of the examined series on the viability of different lung cancer cells, MTT assay was conducted after exposing A549, H1299, and H661 cell lines to increasing concentrations of each compound for 48 h. […] Table 2 and Supplementary Figure S92 (see Supplementary Materials) show the 50% inhibitory concentration (IC50) values for the compounds under investigation in A549, H1299, and H661 lung cancer cells.
(§2) The human lung cancer cell lines A549, H1299 and H661 and the normal cells dermal fibroblasts were obtained from the American Type Culture Collection ATCC. Cells were cultured as a monolayer at seeding density of 8 × 10^3 cells per well in high glucose Dulbecco’s modified eagle medium (DMEM) (Invitrogen, USA), as previously described. The in vitro assessment of the antitumorigenic activities related to the studied compounds was undertaken using the 3-(4,5-dimethylthiazol-2yl)-2,5-diphenyl tetrazolium bromide (MTT) colorimetric assay, as previously reported. The compounds under investigation were tested in three triplicates of each concentration in three independent assays for a total of nine replicates. Both positive (cisplatin) and negative (untreated culture) controls were applied under the same experimental conditions. Cells were cultured for 48 h at 37 °C in a 5% CO2 incubator. Afterwards, MTT assay was carried out where viable cell count was determined based on the amount of formazan crystals, as verified by the absorbance at 490 nm.
(§3) Data was analyzed by Graphpad Prism software (Graphpad Software Inc. Jolla, CA, USA) for the determination of IC50 value. All data were expressed as the average of triplicate experiments.

H1299 lung cancer cells = test: MTT cell viability assay, H1299; assay type: cell-based, human; conditions: mean of three independent experiments (N = 9)
Method: as §1, §2, §3

H661 lung cancer cells = test: MTT cell viability assay, H661; assay type: cell-based, human; conditions: mean of three independent experiments (N = 9)
Method: as §1, §2, §3

human dermal fibroblasts = test: MTT cell viability assay, normal dermal fibroblasts; assay type: cell-based; conditions: 48 h, noncancerous human dermal fibroblasts
Method: as §1, §2, §3

A549 cells [1] = test: Wound healing (migration) assay; assay type: cell-based; conditions: Homo sapiens, A549, 24 h, A549, 10 µM, read-out: % inhibition of wound closure
Method: The wound healing assay was performed in A549 cells to evaluate the effect of the synthesized series on lung cancer cell migration, as shown in Table 3. The wound of the control sample was completely closed after 24 h. […] Cell migration was inhibited after 24 h of treatment with compounds 22 or 23 compared to untreated control cells.
A549 cells were seeded in inserts (Ibidi GmbH, Gräfelfing, Germany) at concentration of 30,000 per insert in 70 μL medium and incubated for 24 h. Afterward, inserts were removed and cells incubated with 10 μg/mL of mitomycin C for 2 h to stop cell proliferation. The medium was removed, and cells were washed three times then cells were treated with 10 µM concentration of the examined compound. Images were captured at 24 h using BOECO microscope coupled with 5.0 Mega Cmos camera at 4× magnification. Digital images were taken using ISCapture software and wound width was measured using MIPAR software (MIPAR, Worthington, OH, USA).

A549 cells [2] = test: Colony formation in soft agar assay; assay type: cell-based, human; design: Average Colony Size: unit not given here; conditions: day 12
Method: To investigate the effect of treatment with either potent compound 22 or 23 at two different concentrations (5 and 10 µM) on the colony-forming capability of lung cancer cells, A549 cells were treated with either concentration for 24 h. Afterwards, cells were grown on soft agar.
To carry out the soft agar assay, a bottom agar film of 1% (w/v) was prepared by mixing autoclaved 1% (w/v) agar solution with 2× DMEM medium in a 1:1 ratio and allowed to solidify at room temperature. A mixture of 1 × 10^4 of A549 cells treated with either compound NV7 (5 µM and 10 µM) or NV8 (5 µM and 10 µM) and 0.6% (w/v) agar solution was prepared in 1:1 ratio and poured on top of the bottom layer and left to solidify. Plate was incubated for 2 weeks. Photos were captured after 12 days using EVOS XL Core imaging system (Invitrogen, Waltham, MA, USA).

| SMILES | pIC50 (A549 lung cancer cells; 48 h) | pIC50 (H1299 lung cancer cells; 48 h) | pIC50 (H661 lung cancer cells; 48 h) | melting point | pIC50 (A549 lung cancer cells; Homo sapiens, A549, 48 h) | pIC50 (H1299 lung cancer cells; Homo sapiens, NCI-H1299, 48 h) | pIC50 (H661 lung cancer cells; Homo sapiens, NCI-H661, 48 h) | pIC50 (human dermal fibroblasts) | pIC50 (human dermal fibroblasts; Homo sapiens, Fibroblast) | inhibition at 10 µM (A549 cells [1]) | Average Colony Count (A549 cells [2]; 5 µM) | Average Colony Size (A549 cells [2]; 5 µM) | Average Colony Count (A549 cells [2]; 10 µM) | Average Colony Size (A549 cells [2]; 10 µM) |
| --- | --- | --- | --- | --- | --- | --- | --- | --- | --- | --- | --- | --- | --- | --- |
| CCCCCCCCCC[n+]1ccc(C(=O)NN=Cc2ccc[n+](CCCCCCCCCC)c2)cc1.F[B-](F)(F)F.F[B-](F)(F)F [Compound 23, 1-Decyl-3-((2-(1-decylpyridin-1-ium-4-carbonyl)hydrazono)methyl)pyridin-1-ium Tetrafluoroborate] |  |  | 4.95 |  | 4.87 | 4.97 |  |  | < 3.52 | 67.1% | 135 | 43771 | 45 | 16837 |
| CCCCCCCCC[n+]1ccc(C(=O)NN=Cc2ccc[n+](CCCCCCCCC)c2)cc1.[I-].[I-] [Compound 10, 1-Nonyl-3-((2-(1-nonylpyridin-1-ium-4-carbonyl)hydrazono)methyl)pyridin-1-ium Iodide] | 4.26 | 4.20 | 4.22 | 76 to 78 °C |  |  |  | < 3.52 |  |  |  |  |  |  |
| CCCCCCCCCCCC[n+]1ccc(C(=O)NN=Cc2ccc[n+](CCCCCCCCCCCC)c2)cc1.[I-].[I-] [Compound 12, 1-Dodecyl-3-((2-(1-dodecylpyridin-1-ium-4-carbonyl)hydrazono)methyl)pyridin-1-ium Iodide] | 4.57 | 4.52 | 4.53 | 63 to 65 °C |  |  |  | < 3.52 |  |  |  |  |  |  |

Further lines, with some results ahead:

| pIC50 (A549 lung cancer cells; 48 h) | pIC50 (H1299 lung cancer cells; 48 h) | pIC50 (H661 lung cancer cells; 48 h) | melting point | pIC50 (A549 lung cancer cells; Homo sapiens, A549, 48 h) | pIC50 (H1299 lung cancer cells; Homo sapiens, NCI-H1299, 48 h) | pIC50 (H661 lung cancer cells; Homo sapiens, NCI-H661, 48 h) | SMILES | pIC50 (human dermal fibroblasts) | pIC50 (human dermal fibroblasts; Homo sapiens, Fibroblast) | inhibition at 10 µM (A549 cells [1]) | Average Colony Count (A549 cells [2]; 5 µM) | Average Colony Size (A549 cells [2]; 5 µM) | Average Colony Count (A549 cells [2]; 10 µM) | Average Colony Size (A549 cells [2]; 10 µM) |
| --- | --- | --- | --- | --- | --- | --- | --- | --- | --- | --- | --- | --- | --- | --- |
| 4.82 | 4.72 | 4.63 | 70 to 72 °C |  |  |  | CCCCCCCCCC[n+]1ccc(C(=O)NN=Cc2ccc[n+](CCCCCCCCCC)c2)cc1.[I-].[I-] [Compound 11, 1-Decyl-3-((2-(1-decylpyridin-1-ium-4-carbonyl)hydrazono)methyl)pyridin-1-ium Iodide] | < 3.52 |  |  |  |  |  |  |
|  |  |  |  | 4.63 | 4.54 | 4.59 | CCCCCCCCCC[n+]1ccc(C(=O)N/N=C/c2ccc[n+](CCCCCCCCCC)c2)cc1 [Compound 22, 1-Decyl-3-((2-(1-decylpyridin-1-ium-4-carbonyl)hydrazono)methyl)pyridin-1-ium Hexafluorophosphate] |  | < 3.52 | 67.6% | 210 | 16356 | 98 | 11159 |
